Test results published in PubChem BioAssay (NCI).
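GI50 is the concentration that inhibits growth by half. TGI is the concentration that stops growth completely.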

Experiments:
Experiment in all cases: NCI tumour cell line growth inhibition, 384-well format
[1] = system: SN12C renal
[2] = system: LOX IMVI melanoma
[3] = system: SNB-75 CNS
[4] = system: BT-549 breast
[5] = system: UO-31 renal
[6] = system: RPMI-8226 leukemia
[7] = system: U251 glioblastoma
[8] = system: IGROV1 ovarian
[9] = system: SK-MEL-28 melanoma
[10] = system: NCI-H23 lung
[11] = system: SK-MEL-5 melanoma
[12] = system: SF-295 CNS
[13] = system: UACC-257 melanoma
[14] = system: NCI-H322M lung
[15] = system: NCI-H226 lung
[16] = system: TK-10 renal
[17] = system: MDA-MB-468 breast
[18] = system: HOP-62 NSCLC
[19] = system: KM12 colon
[20] = system: EKVX NSCLC
[21] = system: HT29 colon
[22] = system: SF-539 CNS
[23] = system: MDA-MB-231 breast
[24] = system: DU-145 prostate
[25] = system: PC-3 prostate
[26] = system: NCI/ADR-RES ovarian
[27] = system: HL-60(TB) leukemia
[28] = system: UACC-62 melanoma
[29] = system: 786-0 renal
[30] = system: SF-268 CNS
[31] = system: HS 578T breast
[32] = system: OVCAR-8 ovarian
[33] = system: HOP-92 NSCLC
[34] = system: SK-OV-3 ovarian
[35] = system: SW-620 colon
[36] = system: MALME-3M melanoma
[37] = system: MOLT-4 leukemia
[38] = system: HCT-116 colon
[39] = system: OVCAR-4 ovarian
[40] = system: RXF 393 renal
[41] = system: MDA-MB-435 melanoma
[42] = system: HCC-2998 colon
[43] = system: A498 renal
[44] = system: ACHN renal
[45] = system: T-47D breast
[46] = system: SNB-19 CNS
[47] = system: MCF7 breast
[48] = system: K-562 leukemia
[49] = system: NCI-H460 NSCLC
[50] = system: CAKI-1 renal
[51] = system: OVCAR-5 ovarian
[52] = system: NCI-H522 lung
[53] = system: M14 melanoma
[54] = system: HCT-15 colon

`CCn1cc(-c2ccnc3[nH]c(-c4cccc(CN(C)C)c4)cc23)c(-c2ccc(NC(=O)N(C)C)cc2)n1` was tested, and the GI50 [1] was 344 nM, the TGI [1] was 3800 nM and the GI50 [2] was 422 nM. The TGI [2] was 1920 nM, the GI50 [3] was 483 nM and the TGI [3] was 2220 nM. The GI50 [4] was 293 nM, the TGI [4] was 1770 nM and the GI50 [5] was 2670 nM. For the same compound, the TGI [5] was 12000 nM, the GI50 [6] was < 10 nM and the TGI [6] was 1430 nM. It also gave a GI50 [7] of 1350 nM, a TGI [7] of 2830 nM and a GI50 [8] of 1530 nM. For the same compound, the TGI [8] was 10400 nM, the GI50 [9] was 1700 nM and the TGI [9] was 4760 nM. The GI50 [10] was 403 nM, the TGI [10] was 2290 nM and the GI50 [11] was 1340 nM. For the same compound, the TGI [11] was 2890 nM, the GI50 [12] was 1910 nM and the TGI [12] was 10000 nM. For the same compound, the GI50 [13] was 1360 nM, the TGI [13] was 2710 nM and the GI50 [14] was 3810 nM. The TGI [14] was 15600 nM, the GI50 [15] was 186 nM and the TGI [15] was 1730 nM. The GI50 [16] was 2610 nM, the TGI [16] was 11600 nM and the GI50 [17] was < 10 nM. For the same compound, the GI50 [18] was 516 nM, the TGI [18] was 7570 nM and the GI50 [19] was 543 nM. It also gave a TGI [19] of 2980 nM, a GI50 [20] of 1110 nM and a TGI [20] of 4860 nM. For the same compound, the GI50 [21] was 1000 nM, the TGI [21] was 2310 nM and the GI50 [22] was 327 nM. It also gave a TGI [22] of 2040 nM, a GI50 [23] of 1320 nM and a TGI [23] of 7090 nM. The GI50 [24] was 2710 nM, the TGI [24] was 14600 nM and the GI50 [25] was 1680 nM. The TGI [25] was 7380 nM, the GI50 [26] was 17600 nM and the TGI [26] was 42400 nM. For the same compound, the GI50 [27] was < 10 nM, the TGI [27] was 1370 nM and the GI50 [28] was 755 nM. The TGI [28] was 4340 nM, the GI50 [29] was 1450 nM and the TGI [29] was 5230 nM. The GI50 [30] was < 10 nM, the TGI [30] was 192 nM and the GI50 [31] was 1250 nM. It also gave a TGI [31] of 3170 nM, a GI50 [32] of 1620 nM and a TGI [32] of 7510 nM. The GI50 [33] was 449 nM, the TGI [33] was 2720 nM and the GI50 [34] was 1010 nM. The TGI [34] was 3410 nM, the GI50 [35] was 750 nM and the TGI [35] was 2350 nM. The GI50 [36] was 1510 nM, the TGI [36] was 3340 nM and the GI50 [37] was < 10 nM. It also gave a GI50 [38] of 158 nM, a TGI [38] of 1940 nM and a GI50 [39] of 2260 nM. The TGI [39] was 13900 nM, the GI50 [40] was 45.4 nM and the TGI [40] was 2740 nM. The GI50 [41] was 1680 nM, the TGI [41] was 5340 nM and the GI50 [42] was 1690 nM. It also gave a TGI [42] of 4200 nM, a GI50 [43] of 1180 nM and a TGI [43] of 9520 nM. The GI50 [44] was 2230 nM, the TGI [44] was 10700 nM and the GI50 [45] was 1420 nM. For the same compound, the TGI [45] was 9450 nM, the GI50 [46] was 2410 nM and the TGI [46] was 14200 nM. For the same compound, the GI50 [47] was 843 nM, the TGI [47] was 7150 nM and the GI50 [48] was 1090 nM. The TGI [48] was 2420 nM, the GI50 [49] was < 10 nM and the TGI [49] was 1340 nM. For the same compound, the GI50 [50] was 246 nM, the TGI [50] was 1940 nM and the GI50 [51] was 1680 nM. It also gave a TGI [51] of 4910 nM, a GI50 [52] of 115 nM and a TGI [52] of 1540 nM. For the same compound, the GI50 [53] was 1270 nM, the TGI [53] was 3940 nM and the GI50 [54] was 1940 nM. For the same compound, the TGI [54] was 9960 nM.
